# In patent US10105305B2, “Compositions and methods for promoting skin regeneration and hair growth” (THE JOHNS HOPKINS UNIVERSITY, priority 2014, dated 2018):
# “Also recorded” adds a separate entry of the source.
# B1: IL-6: recombinant mouse IL-6 protein in mice; recombinant human IL-6 in NHEK (protein, UniProt P08505 25-211, looked up)
# Interleukin-6: FPTSQVRRGDFTEDTTPNRPVYTTSQVGGLITHVLWEIVEMRKELCNGNSDCMNNDDALAENNLKLPEIQRNDGCYQTGYNQEICLLKISSGLLEYHSYLEYMKNNLKDNKKDKARVLQRDTETLIHIFNQEVKDLHKIVLPTPISNALLTDKLESQKEWLRTKTIQFILKSLEEFLKVTLRSTRQT
# How the values were obtained:
# murine skin wounds = experiment: Wound induced hair neogenesis (WIHN), regenerated hair follicles counted by CSLM; format: in vivo, mouse
# Protocol: Wound Induced Hair Neogenesis (WIHN). All animal protocols are approved by the Johns Hopkins University Animal Care and Use Committee. C57BL/6J, B6; 129SF2/J and TLR3 null mice (B6; 129S1-Tlr3tm1Flv/J) were obtained from The Jackson Laboratory. Mixed strain (C57BL/6J×FVB/N×SJL/J) animals were provided by Dr. Jean Richa (University of Pennsylvania).
# A 1 cm2 excisional full-thickness wounds to the level of skeletal muscle on the backs of 21-day old male and female mice was performed as previously described (Ito et al., 2007; Nelson et al., 2013). Numbers of regenerated hair follicles were quantified in the re-epithelialized skin by non-invasive confocal scanning laser microscopy (CSLM) as published (Fan et al., 2011). For all experiments, […] of “intervention” was injected into healing wound (under scab) or applied topically into open wound as shown in Table 1 below.
# Treatments during WIHN assay. Recombinant mouse IL-6 protein (R&D Systems, Minneapolis, Minn.) and poly(I:C) (High Molecular Weight; InVivogen, San Diego, Calif.) was diluted in sterile PBS immediately prior to injection. Cucurbitacin I (Tocris Biosciences/R&D Systems, Minneapolis Minn.) was dissolved in 10% EtOH/PBS to a final concentration of 1 mg/mL prior to injection. RNase III enzyme (Life Technologies, Grand Island N.Y.) was diluted in supplied reaction buffer
# [1] = test system: neo-natal human epidermal keratinocytes (NHEK); experiment: qRT-PCR gene expression in cultured keratinocytes (NHEK); format: cell-based
# Protocol: Cell Culture. Neo-natal human epidermal keratinocytes (Lonza, Walkersville, Md.) or lab-isolated foreskin keratinocytes were cultured in keratinocyte medium with added supplements (KGMGOLD). Treatment with recombinant IL-6 protein (50 ng/mL), cucurbitacin I (10-100 nM), poly (I:C) (20 μg/mL) and TLR3 pharmacological inhibitor (80 μM; EMD Millipore, Billerica, Mass.) was applied in basal medium containing transferrin, hydrocortisone and antibiotics for up to 24 hours. After 24 hours, treatment medium was replaced with KGM-GOLD and isolation of RNA as indicated.
# Nucleofection. Nucleofection with siGENOME SMARTpoo1 Human Tap63, TLR3, REL-A and siCONTROL siRNA duplex oligonucleotides (Dharmacon-ThermoFischer Scientific) was performed in NHEK using the Amaxa 4D-Nucleofector according to manufacturer's instruction. Plated cells were treated with recombinant human IL-6 (50 ng/mL) protein or poly(I:C) (20 μg/mL) for 24 hours. Afterwards, treatment medium was removed and replaced with KGMGOLD complete medium for the duration of the experiment. Levels of appropriate gene expression were assessed by qRT-PCR using inventoried TaqMan reagents in three independent experiments.
# Quantitative Real-Time PCR (qRT-PCR). Mouse skin was harvested prior to wounding and throughout wounding as described (Nelson et al., 2013). RNA was isolated from NHEK with RNeasy Mini Kit (Qiagen, Valencia, Calif.) with DNase I digestion. qRT-PCR was performed for genes of interest and 18S or ribosomal protein, large PO (RPLP0) (housekeeping genes) using inventoried TaqMan reagents. Differences in gene expression were assessed by comparative ΔΔCT values with fold change calculations.
# P-STAT3, TAp63, ΔNp63 = experiment: Western blot of wound tissue in wt mice (P-STAT3, TAp63, ΔNp63); format: in vivo, mouse
# Protocol: FIG. 2: IL-6 and pSTAT3 mediate TLR3 effects on WIHN. A) Mean fold change in IL-6 mRNA in healed scars at WD20-24 in HR vs. LR strains of mice as determined by qRT-PCR and normalized to housekeeping gene β-actin. B) Mean fold change in IL-6 mRNA after poly (I:C) addition (20 μg/mL) to NHEK for 6 hours or in strain matched wt and TLR3 KO mice 6 hours after wounding as determined by qRT-PCR and normalized to housekeeping gene RPLP0 (NHEK) or β-actin (mouse). C) Time course of IL-6 mRNA and protein expression throughout early stage wound healing in wt mice, as determined by qRT-PCR and ELISA, respectively. D) IL-6 (middle panels) and P-STAT3 (right panels; arrows) immunohistochemistry of healing scars at WD5 and WD8 in wt mice. Scale bar=50 μm. E) Cross-section histology of healed scar at WD22 after a single injection of IL-6 (25 ng) or PBS control at WD7. Regenerated hair follicles are marked with arrows. Scale bar=100 μm. F) Regenerated hair shafts (white, arrows) at ˜WD58-62 as visualized by dissecting microscope. G) WIHN in wt mice after single dose of rmIL-6 (25 ng) compared to PBS control as measured by CSLM. H) WIHN levels in wt mice after cucurbitacin I (2 mg/kg) or control as measured by CSLM. I) P-STAT 3 levels in the presence of cucurbitacin I (+) compared to control (−) in wt mice as measured by western blot and normalized to STAT3. PC=P-STAT3 positive control cell lysate. *p<0.05 by Student's T-test or Single Factor ANOVA.
# FIG. 4: dsRNA and IL-6 induce keratinocyte stem cell genes. A) Mean fold change in TAp63 mRNA after IL-6 protein (50 ng/mL)+/−cucurbitacin I in NHEK as determined by qRT-PCR and normalized to housekeeping gene, RPLP0. B) TAp63 protein levels after IL-6 (25 ng) compared to PBS control in wt mice measured by western blot; normalized to β-actin. C) TAp63 and ΔNp63 protein levels after cucurbitacin I (2 mg/kg) compared to PBS control in wt mice measured by western blot; normalized to β-actin. D) Mean fold change in KRT1 mRNA with TAp63-specific or scrambled control siRNA in the presence of IL-6 (50 ng/mL) in NHEK as determined by qRT-PCR and normalized to housekeeping gene, RPLP0. E) Mean fold change in CBX4 mRNA after poly (I:C) (20 μg/mL) addition to NHEK for 24 hours as determined by qRT-PCR and normalized as in 4D. F) Mean fold change in CBX4 mRNA after IL-6 (50 ng/mL)+/−cucurbitacin I in NHEK for 24 hours as determined by qRT-PCR and normalized as in 4D. G) Mean fold change in KRT15 mRNA 72 hours after 24 hours of poly (I:C) (20 μg/mL) treatment to NHEK as determined by qRT-PCR and normalized as in 4D. H) Flow cytometry analysis of KRT15 protein expression 72 hours after 24 hours of poly (I:C) (20 μg/mL) or control to NHEK. *p<0.05 by Student's T-test or Single Factor ANOVA.
# [2] = test system: normal nonwounded murine skin; experiment: Hair cycle in non-wounded murine skin after injection during telogen; format: in vivo; conditions: poly (I:C) 200 ng/mouse injected during telogen
# NHEK [3] = experiment: Flow cytometry of KRT15 and vimentin in keratinocytes; format: cell-based, human
# Text: Flow Cytometry. Keratinocytes and fibroblasts were fixed, permeabilized (BD Cytofix/Cytoperm kit), and stained with antibodies against human vimentin (BD Pharmingen clone RV202) and KRT15 (Abam clone LHK15) labeled with a chromophore preconjugated to Fab (Zenon mouse IgG labeling kit). Data was collected on a dual-laser flow cytometer (BD FACSCalibur) followed by FlowJo 10 (TreeStar) software analysis.
# NHEK [4] = experiment: Immunocytochemistry: keratinocyte morphology and beta-catenin nuclear localization; format: cell-based, human; conditions: 72 hours after 24 hours of poly (I:C) 20 μg/mL
# Protocol: […] Fixed cells were incubated with primary antibodies overnight, appropriate Alexa Fluor secondary antibodies and counterstained using VectaShield DAPI mounting medium (Vector Labs, Burlingame, Calif.). Slides were imaged at 60× magnification using the Nikon C1si True Spectral Imaging Confocal Laser Scanning Microscope system (Cell Imaging Core Facility, Sidney Kimmel Comprehensive Cancer Center, Johns Hopkins, Baltimore, Md.). Cell morphology and beta-catenin nuclear localization were quantified using the CellProfiler image analysis software (www.cellprofiler.org) (Carpenter et al., 2006) from confocal images of nuclei.
# [5] = test system: β-catenin and GLI2 promoters; experiment: ChIP-qPCR of STAT3 occupancy at promoters in keratinocytes; format: cell-based, human; conditions: poly (I:C) treated keratinocytes, N=5, p<0.05
# Protocol: Chromatin Immunoprecipitation. Poly(I:C) treated and control keratinocytes were crosslinked in 1% formaldehyde for 10 minutes, followed by addition of glycine for 5 minutes to quench unreacted formaldehyde. Cells were processed with EZ-ChIP Kit (Millipore) according to the manufacturer's instructions. Crosslinked protein-DNA complexes were captured with rabbit anti-Stat3 or normal rabbit IgG (sc-482X; sc-2027X, SCBT) antibodies. Real-time quantitative PCR was performed to determine the relative abundance of the promoter DNA sequence, associated with Stat3. Primers are detailed in Expanded Experimental Methods. Primers and graphics were designed based on ENCODE data (UCSC Genome Browser).
# ChIP. The amplicon for Gli2 promoter site 4 encompasses TTCCAGGAA (SEQ ID NO:2) on chr2: 121621123-121621782 in the Encode database. It was amplified with the primer sequences: a) forward: 5 […]3′ (SEQ ID NO:3); b) reverse: 5′TCCTGTTCACATTGACGCC3′ (SEQ ID NO:4). The amplicon for β-catenin promoter site 4 encompasses TTCCTGGAA (SEQ ID NO:5) on chr3: 41264037-41264357 in the Encode database. This was amplified with the primer sequences: a) forward: 5′[…]3′ (SEQ ID NO:6); b) reverse: 5′[…]3′ (SEQ ID NO:7).
# healed murine wounds = experiment: Histology and immunohistochemistry of healed mouse scars (epidermal thickness, cleaved caspase 3, Ki-67); format: in vivo
# Protocol: Immunohistochemistry, Immunocytochemistry and Histology. Immunohistochemistry was performed on formalin-fixed paraffin-embedded mouse skin samples using the avidin-biotin complex method and AEC development (Vector Laboratories). Indicated antibodies were applied overnight. Sections were counterstained with hematoxylin. Images were captured at 40× magnification using a Nikon Optiphot microscope and Nikon Elements F software. Histology was assessed by H&E after IL-6 addition. The epidermal thickness from the basal layer keratinocytes to beginning of stratum corneum in three locations per healed mouse wound in multiple histology sections was measured by Image J software.
# [6] = IL-6 50 ng/mL + cucurbitacin I, NHEK, 24 hours
# [7] = cucurbitacin I 2 mg/kg vs PBS, western blot
# [8] = 72 hours after 24 hours of poly (I:C) 20 μg/mL, NHEK
# [9] = poly (I:C) 20 μg/mL treatment, NHEK
# [10] = poly (I:C) 20 μg/mL, NHEK, 24 hours
molecule,measurement,setting,value
CC(C)(O)/C=C/C(=O)[C@](C)(O)[C@H]1[C@H](O)C[C@@]2(C)[C@@H]3CC=C4[C@@H](C=C(O)C(=O)C4(C)C)[C@]3(C)C(=O)C[C@]12C [cucurbitacin I],decrease in the number of regenerated follicles,"murine skin wounds; wt C57BL/6J mice, cucurbitacin I 2 mg/kg injected at WD7, CSLM ~WD20-24",greater than 3 fold
same,effect on IL-6-induced TAp63 mRNA increase,"[1]; IL-6 50 ng/mL + cucurbitacin I, NHEK",reversed
same,effect on IL-6-induced KRT1 decrease,[1]; [6],reversed
same,effect on induced CBX4 increase,[1]; [6],reversed
same,ANp63 protein,"P-STAT3, TAp63, ΔNp63; [7]",corresponding increase
same,TAp63 protein,"P-STAT3, TAp63, ΔNp63; [7]",decrease
same,STAT3 phosphorylation,"P-STAT3, TAp63, ΔNp63; cucurbitacin I 2 mg/kg, western blot normalized to STAT3",strongly suppressed
Polyinosinic:polycytidylic acid [poly (I:C)],stimulatory effect on WIHN in TLR3 null mice,"murine skin wounds; TLR3 KO mice, poly (I:C) 200 ng vs PBS, CSLM",abrogated
same,number of regenerated follicles (WIHN),"murine skin wounds; wt mice, single poly (I:C) 200 ng injected into wound at WD3 vs PBS, CSLM ~WD20-24",greater number of regenerated follicles
same,effect on hair cycle (anagen activation) in nonwounded skin,[2],does not affect the hair cycle; also recorded: no activation of anagen
same,KRT15 mRNA expression,[1]; [8],significantly increased
same,vimentin (VIM) mRNA expression,"[1]; following poly (I:C) 20 μg/mL for 24 hours, indicated time points, NHEK",continued to increase in a time-dependent fashion
same,EDAR expression,[1]; [9],increased
same,GLI1 expression,[1]; [9],increased
same,LEF1 expression,[1]; [9],up-regulated
same,SHH expression,[1]; [9],increased
same,induction of IL-6 mRNA,"[1]; poly (I:C) 20 μg/mL, NHEK, 6 hours",greater than 30 fold
same,CBX4 expression,[1]; [10],increase
same,KRT1 expression,[1]; [10],nearly complete loss
same,filaggrin (FLG) expression,[1]; [10],nearly complete loss
same,E-cadherin epithelial marker,"[1]; same conditions as vimentin, poly (I:C) treated NHEK",not reduced
same,percentage of KRT15 expressing cells by FACS,NHEK [3]; [8],nearly doubled
same,vimentin protein expression by flow cytometry,NHEK [3]; poly (I:C) treated NHEK vs control keratinocytes and fibroblasts,intermediate between that of control keratinocytes and fibroblasts
same,amount of nuclear β-catenin,NHEK [4],doubled
same,keratinocyte length-width ratio,NHEK [4],near doubling
same,keratinocyte morphology,NHEK [4],"long, spindle-like morphology"
same,STAT3 occupation of GLI2 promoter,[5],significant increase
same,STAT3 occupation of β-catenin promoter,[5],significant increase
B1,increase in the number of regenerated follicles vs vehicle,"murine skin wounds; wt C57BL/6J mice, single rmIL-6 25 ng injected at WD7, CSLM ~WD20-24",~3 fold
same,TAp63 mRNA,"[1]; IL-6 50 ng/mL, NHEK",modest increase
same,CBX4 expression,"[1]; IL-6 50 ng/mL, NHEK, 24 hours",increase
same,Keratin 1 (KRT1) differentiation marker expression,"[1]; IL-6 50 ng/mL, NHEK, 24 hours",profound decrease
same,"apoptosis or proliferation (cleaved caspase 3, Ki-67)",healed murine wounds; healed murine wounds after rmIL-6 treatment,no alterations
same,reduction in epidermal thickness vs controls,"healed murine wounds; healed scars, IL-6 25 ng at WD7 vs PBS",2 fold
same,increase in the amount of TAp63 protein,"P-STAT3, TAp63, ΔNp63; IL-6 25 ng vs PBS, western blot normalized to β-actin",2.5 fold
